In article PMC12207533, “Structure-guided design of a methyltransferase-like 3 (METTL3) proteolysis targeting chimera (PROTAC) incorporating an indole–nicotinamide chemotype” (RSC Medicinal Chemistry, 2025):
Where “and” joins values, the source holds several entries; their conditions need not be identical. Equal values may be shown once. Read-outs that look alike come from different tables or passages of the source.

Columns and labels:
[1] = test system: METTL14; assay: Immunoblotting of METTL14 protein levels in MOLM-13 cells; type: cell-based, human
Protocol: (§1) MOLM-13 were seeded in 12-well cell culture plates at a density of 1 × 10^6 cells per mL and treated with DMSO (final: 0.1%) or different concentrations of PROTAC degraders in DMSO at the indicated times. Treatments were conducted in biological triplicate with varying passages of MOLM-13 cells. The cells were harvested by centrifugation at 500g for 5 min and washed with PBS. The cells were lysed with RIPA lysis buffer with the addition of protease inhibitor (1× cOMPLETE), and insoluble cellular parts were separated by centrifugation (12 000g for 10 min), subsequently, the supernatant was boiled with 1× Laemmli sample buffer (Carl Roth) for 5 min at 95 °C. Proteins were separated by SDS–PAGE on 4–20% Criterion™ TGX™ Precast Protein Gels (Bio-Rad) and transferred to Amersham™ Protean® 0.45 μm nitrocellulose membrane (Cytiva) using semi-dry transfer (25 V, 1 A, Towbin buffer). […] The protein bands were detected via chemiluminescence using Pierce™ ECL western blotting substrate and a Fusion FX imaging system (Vilber). The ImageLab software (Bio-Rad) was used for band quantification.

[2] = test system: m^6A levels in MOLM-13 mRNA; assay: RNA m^6A quantification (colorimetric kit); type: cell-based, human; conditions: MOLM-13, AF151 2 μM vs STM2457 10 μM, 24 and 48 h
Protocol: Quantification of m^6A levels upon compound treatment was conducted in analogy to the study introducing the WD6305 PROTAC.[31] MOLM-13 cells were treated with AF151 (2 μM), STM2457 (10 μM), and DMSO in triplicate for 24 and 48 h. Total RNA was isolated as specified above. PolyA mRNA was then isolated using the PolyATtract® mRNA Isolation System (Promega). m^6A levels were quantified using a colorimetric m^6A RNA methylation Assay Kit (Abcam) as specified in the manufacturer's protocol.

[3] = test system: Bcl-XL; assay: Immunoblotting of Bcl-XL protein levels in MOLM-13 cells; type: cell-based, human; conditions: 2 μM, time course
Protocol: as §1

[4] = biological target: T1, METTL3/14 (Homo sapiens, UniProt Q86U44); assay: Fluorescence polarization (FP) displacement assay with METTL3/14; type: binding
T1 construct: human METTL3 (UniProt: Q86U44, aa 252–580); Strep-tag II (C); made in house; host or cells: E. coli BL21 (DE3)
T1 sequence (Q86U44 252-580): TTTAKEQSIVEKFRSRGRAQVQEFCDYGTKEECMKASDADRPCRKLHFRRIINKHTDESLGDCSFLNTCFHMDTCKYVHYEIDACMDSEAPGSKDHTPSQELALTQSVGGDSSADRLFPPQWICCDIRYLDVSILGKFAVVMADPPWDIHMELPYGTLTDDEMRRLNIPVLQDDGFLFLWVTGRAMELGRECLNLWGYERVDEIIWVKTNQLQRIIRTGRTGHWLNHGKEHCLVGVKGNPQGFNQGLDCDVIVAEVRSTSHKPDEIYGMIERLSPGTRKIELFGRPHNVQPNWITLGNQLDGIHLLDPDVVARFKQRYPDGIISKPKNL
T1 sequence (Q9HCE5 108-444 partner limits assumed): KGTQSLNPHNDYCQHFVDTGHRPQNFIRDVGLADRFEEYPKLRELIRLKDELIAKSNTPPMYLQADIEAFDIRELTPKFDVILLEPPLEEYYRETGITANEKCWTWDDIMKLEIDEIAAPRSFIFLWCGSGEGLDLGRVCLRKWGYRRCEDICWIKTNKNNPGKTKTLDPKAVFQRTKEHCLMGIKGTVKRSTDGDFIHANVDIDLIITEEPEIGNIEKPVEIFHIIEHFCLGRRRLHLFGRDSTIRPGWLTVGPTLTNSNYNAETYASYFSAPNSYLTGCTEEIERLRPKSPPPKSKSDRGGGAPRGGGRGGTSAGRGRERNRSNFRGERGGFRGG
Protocol: (§2) Fluorescence polarization (FP) displacement assays with METTL3/14 (ref. [36]) and VCB[38–40] were performed following previous protocols with slight adaptations. All experiments were conducted in black Greiner 96-well half-area plates using a Tecan Spark 10 M plate reader, equipped with polarization filters coupled to a monochromator setup (λex = 480 nm, λem = 530 nm). Reaction mixtures for METTL3/14 contained 300 nM recombinant enzyme, 20 nM FAM-labelled displacement tracer (STM-FL[36]), and the test compounds at varying concentrations in 25 mM Tris HCl, pH 7.5, 100 mM NaCl, and 10% DMSO. For VCB, the mixtures contained 40 nM recombinant enzyme, 10 nM FAM-labelled probe (FAM-DEALAHyp[…], Tocris Bioscience), and the tested compounds, at varying concentrations, in 50 mM Tris, pH 7.5, 200 mM NaCl, 2 mM DTT, and 10% DMSO. […] All measurements were performed at least as technical triplicates. Polarization values (mP) were determined from polarization-specific parallel and orthogonal fluorescence intensities using the Tecan in-built calculation routine. Using GraphPad Prism 8.0.1, the FP values were normalized, and KD values were calculated using a 4-parameter Hill equation: y(% probe bound) = bottom + ([ligand]slope) × (top–bottom)/([ligand]slope + KD slope).

[5] = test system: METTL3 mRNA; assay: RT-qPCR of METTL3 mRNA expression; type: cell-based, human; conditions: MOLM-13, AF151 2 μM or STM2457 10 μM, 24 h and 48 h
Protocol: (§3) To determine mRNA expression levels of METTL3 and METTL14, MOLM-13 cells were treated in triplicate with compound 41 (AF151, 2 μM), STM2457 (10 μM), and DMSO for 24 resp. 48 h. Afterward, total RNA was extracted using the TRIzol™ reagent (Thermo Fisher Scientific) and purified with the Monarch® Spin RNA Cleanup Kit (New England Biolabs). RT-qPCR was conducted using the two-step GoTaq® RT-qPCR system (Promega) following the manufacturer's protocol. The data were normalized to the DMSO control and GAPDH housekeeping gene (ΔΔCt) using GraphPad Prism 8.0.1.

[6] = test system: MOLM-13 cells; assay: Real-time annexin V apoptosis assay; type: cell-based, human; conditions: MOLM-13, dose-dependent, monitored over 48 h
Protocol: MOLM-13 cells were treated with AF151 at the indicated concentrations for 48 h, with DMSO (final: 0.1%) as the negative control. Apoptosis of technical triplicate samples was detected in real-time using the RealTime-Glo™ annexin V apoptosis assay kit (Promega), following the manufacturer's protocol. Data were plotted using GraphPad Prism 8.0.1.

[7] = biological target: T2, VCB (VHL, elongin B, elongin C) (Homo sapiens, UniProt P40337); assay: FP displacement assay with VCB (binary and ternary KD, cooperativity); type: binding
T2 construct: VHL (UniProt: P40337, aa 1–213); His6 (N); made in house; host or cells: E. coli BL21 (DE3)
T2 sequence (P40337 whole entry, the tested form may be a part): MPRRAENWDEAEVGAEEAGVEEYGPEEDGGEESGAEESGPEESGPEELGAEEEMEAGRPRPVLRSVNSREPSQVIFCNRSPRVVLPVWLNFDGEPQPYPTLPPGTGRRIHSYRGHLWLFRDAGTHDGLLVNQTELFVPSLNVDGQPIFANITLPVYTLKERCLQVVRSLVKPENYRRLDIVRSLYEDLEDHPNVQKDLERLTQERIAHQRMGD
T2 sequence (Q15370 whole entry partner, the tested form may be a part): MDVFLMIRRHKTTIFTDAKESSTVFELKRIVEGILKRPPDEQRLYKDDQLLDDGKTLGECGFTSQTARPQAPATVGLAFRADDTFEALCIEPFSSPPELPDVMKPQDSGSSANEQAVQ
T2 sequence (Q15369 17-112 partner limits assumed): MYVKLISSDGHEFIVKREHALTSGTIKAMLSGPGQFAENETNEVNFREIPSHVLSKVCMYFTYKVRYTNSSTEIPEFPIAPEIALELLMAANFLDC
Protocol: as §2

[8] = test system: MOLM-13 cells; assay: Synergy analysis (ZIP, SynergyFinder+) of AF151 and venetoclax on cell viability; type: cell-based, human; conditions: co-treatment with venetoclax, 72 h
Protocol: (§4) To determine cell viability, MOLM-13 cells were treated with the indicated compounds in a 1 : 1 serial dilution, with pure DMSO (final: 0.1%) as the negative control. Briefly, 1000 cells were seeded in black Greiner half-area 96-well plates and incubated for 72 h with inhibitors from DMSO stocks under standard cultivation conditions. Then, Promega CellTiter Glo 2.0 reagent was added to each well according to the manufacturer's protocols, and luminescence was measured using a Tecan Spark 10 M. Experiments were conducted in technical triplicate. Data was normalized to the DMSO control and analyzed with GraphPad Prism 8.0.1 to determine EC50 values. Synergistic effects of venetoclax and AF151 on cell MOLM-13 viability were conducted accordingly, with dilution series of both compounds analyzed using the SynergyFinder+ webtoolkit.[57]

[9] = test system: Mcl-1; assay: Immunoblotting of Mcl-1 protein levels in MOLM-13 cells; type: cell-based, human; conditions: 2 μM, time course
Protocol: as §1

[10] = test system: Bcl-2; assay: Immunoblotting of Bcl-2 protein levels in MOLM-13 cells; type: cell-based, human; conditions: 2 μM, time course
Protocol: as §1

[11] = test system: METTL14 mRNA; assay: RT-qPCR of METTL14 mRNA expression; type: cell-based, human; conditions: MOLM-13, AF151 2 μM or STM2457 10 μM, 24 h and 48 h
Protocol: as §3

[12] = biological target: T3, human VHL (Homo sapiens, UniProt P40337); assay: HTRF human VHL binding kit
T3 construct: purchased Revvity
T3 sequence (P40337 whole entry): as the sequence (P40337 whole entry, the tested form may be a part) above
T3 sequence (Q15370 whole entry partner): as the sequence (Q15370 whole entry partner, the tested form may be a part) above
T3 sequence (Q15369 whole entry partner): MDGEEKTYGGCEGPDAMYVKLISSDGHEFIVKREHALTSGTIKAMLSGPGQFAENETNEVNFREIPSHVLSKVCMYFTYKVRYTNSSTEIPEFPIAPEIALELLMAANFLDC
Protocol: PROTACs binding to VHL or CRBN were measured using a homogeneous time-resolved fluorescence (HTRF) human VHL or CRBN binding kit (Revvity). Samples were prepared according to the manufacturer's protocol, with compounds diluted in the provided diluent while maintaining a constant DMSO concentration with a final concentration of 1.25%. For the ternary KD determinations, METTL3/14 was added at 4 μM, corresponding to approximately a 20- to 40-fold excess of binary KD, while all other component concentrations were kept as specified in the protocol. Measurements were performed in triplicate using a Tecan Spark 10 M plate reader, recording donor and acceptor emissions at λem_donor = 620 nm and λem_acceptor = 665 nm, respectively, following excitation of the HTRF donor at λex = 320 nm. The acceptor-to-donor emission ratio was calculated as ratio = signal 665 nm/signal 620 nm. Using GraphPad Prism 8.0.1, the fluorescence values were normalized, and KD values were calculated as specified above.

[13] = biological target: T4, METTL3 (Homo sapiens, UniProt Q86U44); assay: Immunoblotting of METTL3 protein levels in MOLM-13 cells; type: cell-based; conditions: for METTL3 degradation (Western blot screening): MOLM-13, 0.1-10 μM
T4 construct: endogenous in cells; host or cells: MOLM-13
T4 sequence (Q86U44 whole entry): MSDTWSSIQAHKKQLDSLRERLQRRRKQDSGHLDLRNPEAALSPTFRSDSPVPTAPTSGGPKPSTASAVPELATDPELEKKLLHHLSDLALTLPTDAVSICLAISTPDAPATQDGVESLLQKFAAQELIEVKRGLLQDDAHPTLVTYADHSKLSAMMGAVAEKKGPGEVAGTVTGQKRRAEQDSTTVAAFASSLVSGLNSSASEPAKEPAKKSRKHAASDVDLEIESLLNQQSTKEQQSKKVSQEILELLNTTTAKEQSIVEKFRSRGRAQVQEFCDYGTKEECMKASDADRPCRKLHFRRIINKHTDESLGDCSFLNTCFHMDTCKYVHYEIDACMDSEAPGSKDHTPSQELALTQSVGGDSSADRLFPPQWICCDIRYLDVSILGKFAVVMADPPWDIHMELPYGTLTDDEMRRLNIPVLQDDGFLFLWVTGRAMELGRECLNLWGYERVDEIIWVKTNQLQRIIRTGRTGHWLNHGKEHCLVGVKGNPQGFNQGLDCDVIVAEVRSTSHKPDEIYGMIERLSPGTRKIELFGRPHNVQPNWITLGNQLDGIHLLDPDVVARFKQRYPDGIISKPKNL
Protocol: MOLM-13 were seeded in 12-well cell culture plates at a density of 1 × 10^6 cells per mL and treated with DMSO (final: 0.1%) or different concentrations of PROTAC degraders in DMSO at the indicated times. Treatments were conducted in biological triplicate with varying passages of MOLM-13 cells. The cells were harvested by centrifugation at 500g for 5 min and washed with PBS. The cells were lysed with RIPA lysis buffer with the addition of protease inhibitor (1× cOMPLETE), and insoluble cellular parts were separated by centrifugation (12 000g for 10 min), subsequently, the supernatant was boiled with 1× Laemmli sample buffer (Carl Roth) for 5 min at 95 °C. Proteins were separated by SDS–PAGE on 4–20% Criterion™ TGX™ Precast Protein Gels (Bio-Rad) and transferred to Amersham™ Protean® 0.45 μm nitrocellulose membrane (Cytiva) using semi-dry transfer (25 V, 1 A, Towbin buffer). The membrane was blocked with 5% milk (Carl Roth) in TBST buffer and incubated with the following primary antibodies: Anti-METTL3 (1 : 1000, Abcam, ab195352), anti-METTL14 (1 : 1000, Abcam, ab220030), anti-Bcl2 (1 : 1000, Cell Signaling Technology [CST], EPR16891), anti-Mcl-1 (1 : 1000, CST, 5453 T), anti-Bcl-XL (1 : 1000, CST, 2764 T), anti-vinculin (1 : 1000, CST, 13901) or anti-GAPDH (1 : 5000, CST, D17C4) overnight at 4 °C. Subsequently, the membrane was incubated for 1 h at RT with secondary antibodies: anti-rabbit (1 : 2000, VWR, NA934) or anti-mouse (1 : 2000, VWR, 102646-160). The protein bands were detected via chemiluminescence using Pierce™ ECL western blotting substrate and a Fusion FX imaging system (Vilber). The ImageLab software (Bio-Rad) was used for band quantification.

[14] = test system: MOLM-13 cells; assay: Cell viability assay (CellTiter Glo 2.0); type: cell-based, human; conditions: Homo sapiens, MOLM-13, 72 h; read-out: IC50 (cell viability inhibition)
Protocol: as §4

Cc1ncsc1-c1ccc(CNC(=O)[C@@H]2C[C@@H](O)CN2C(=O)[C@@H](NC(=O)CCc2ccc(-c3ccc(COc4cncc(C(=O)NCc5ccc6cc(CN7CCC(C)(C)CC7)[nH]c6c5)c4)cc3)cc2)C(C)(C)C)cc1 [compound 41]
METTL14 protein level relative to DMSO (transient increase) ([1]; 2 μM, after 1 h, MOLM-13): ~150%
METTL14 degradation (Western blot) ([1]; MOLM-13, 1 μM, 16 h): significant degradation
global m^6A level reduction in mRNA [2]: more pronounced m^6A reduction
effect on Bcl-XL protein level [3]: but not Bcl-XL
Kd [4]: 159 ± 26 nM
METTL3 mRNA level (ΔΔCt) [5]: no significant changes
time to apoptosis induction [6]: approximately 10 h
Kd ([7]; absence of METTL3, read-out: KD binary (VHL)): 363 nM
Kd ([7]; presence of METTL3/14 (12 μM), read-out: KD ternary (VHL)): 79.9 nM and 77 nM
maximum ZIP synergy score [8]: 28.87
mean ZIP synergy score [8]: 3.38
effect on Mcl-1 protein level [9]: time-dependent reduction
effect on Bcl-2 protein level [10]: time-dependent reduction
t1/2 of Bcl-2 protein level decrease [10]: 18 h
METTL14 mRNA level (ΔΔCt) [11]: no significant changes
Kd ([12]; HTRF Human VHL Binding Kit, binary, read-out: KD E3-ligases (VHL, HTRF)): 740 ± 113 nM
cooperativity (HTRF) ([12]; VHL affinity in presence and absence of METTL3/14 (4 μM)): positive cooperativity
time for which maximal METTL3 degradation is maintained ([13]; 2 μM, time course, MOLM-13): at least 48 h
time of maximal METTL3 degradation effect ([13]; 2 μM, time course, MOLM-13): 24 h
METTL3 reduction ([13]; 2 μM, within the first 6 h of treatment, MOLM-13): over 50%
METTL3 degradation (Western blot) ([13]; MOLM-13, 1 μM, 16 h): significant degradation
concentration of hook effect (METTL3 degradation decreased) ([13]; MOLM-13, 16 h): > 5 µM
DC50 ([13]; MOLM-13, 16 h treatment, read-out: DC50 (METTL3 degradation)): 430 nM
METTL3 degradation on co-treatment with MLN4924 ([13]; MOLM-13, MLN4924 1 μM): suppressed METTL3 degradation
Dmax at 2.5 µM ([13]; MOLM-13, MOLM-13, 16 h, maximal degradation occurred at 2.5 μM): 95%
METTL3 degradation on co-treatment with STM2457 ([13]; MOLM-13, STM2457 20 μM): inhibited degradation
METTL3 degradation on co-treatment with VH032 ([13]; MOLM-13, VH032 10 μM): suppressed METTL3 degradation
METTL3 degradation on co-treatment with bortezomib ([13]; MOLM-13, bortezomib 1 μM): suppressed METTL3 degradation
IC50 [14]: 450 nM

CC1(C)CCN(Cc2ccc3nc(Cn4cc(-c5cc(Br)cc6[nH]ncc56)nn4)cn3c2)CC1 [STM3006, reference compound]
METTL3 degradation (Western blot screening) ([13]; 16 h): do not func?on as METTL3 degraders

COc1cc2c(cc1Cc1cccc(Cl)c1F)c(=O)c(C(=O)O)cn2[C@H](CO)C(C)C [Elvitegravir, reference compound]
METTL3 degradation (Western blot screening) ([13]; 16 h): do not func?on as METTL3 degraders
